Measurements reported in patent publication EP0409527A2, “Cis-diamineplatinum complexes with methanediphosphonate and substituted methanediphosphonate ligands as antitumor agents” (ENGELHARD CORPORATION, priority 1989, dated 1991).
Several values for one entry are separate records, joined by “and”; a condition that tells them apart may be missing. Equal values may be shown once.

How the values were obtained:
[1] = test system: L1210 leukemia; experiment: L1210 screening (L1210 leukemia tumor model, survival); type: in vivo, Female CDF, mice; settings: for %ILS: 25% ILS or greater indicates activity, maximum 200%
Description: (§1) The platinum-diphosphonate complexes were tested for antitumor activity using both Sarcoma 180 ascites and L1210 leukemia tumor models (see Tables 3 and 4).
Female CDF, mice (16-22g) were injected with a suspension of 1x10^6 tumor cells in 0.5 mL of […] on day zero. On day one, the mice received the test compound in 0.5 mL of the chosen medium (usually water). Six mice were used for each test dose and six doses were normally given. Normal controls (six mice) received tumor on day zero and 0.5 mL of test medium on day one. Positive controls (six mice) were given tumor on day zero and 8 mg/kg cisplatin in 0.5 mL of […] on say one. All compound doses were adjusted for the actual average weight of the mice involved. Testing was terminated at 3 time the normal control mean life span. The percent increase in lifespan (%ILS) was calculated as follows: %ILS = [(mean life span (test)/mean life span (control))-1] X 100% A 25% ILS or greater indicates activity in this screen. The maximum possible ILS is 200%. The positive control must have an ILS > 25% for the test to be considered valid.

[2] = test system: Sarcoma 180 ascites; experiment: S180a screening (Sarcoma 180 ascites tumor model, survival); type: in vivo, Female CFW mice; settings: for %ILS: ILS > 50% indicates activity
Description: as §1
Female CFW mice (18-25g) were implanted with 2 x 10^6 cells ip on day zero. Compounds were administered in 0.5 mL water ip on say one. Groups of 6 mice were used for each test dose as well as controls as defined above. The test was run for twice the MST of the control group, with survivors counted as dying on that day. An ILS of > 50% indicates activity. The tumor line was maintained through weekly transfer of 4 x 10^6 cells in CFW mice.

[3] = test system: L1210 murine tumor system; settings: Nepras, Masters Thesis 1979; cited from earlier work
[4] = L1210, dose 10.00 mg/kg day one
[5] = L1210, dose 20.00 mg/kg day one
[6] = L1210, dose 40.00 mg/kg day one
[7] = L1210, dose 80.00 mg/kg day one
[8] = L1210, dose 160.00 mg/kg day one
[9] = L1210, dose 320.00 mg/kg day one
[10] = L1210, survivors/mice, dose 10.00 mg/kg
[11] = L1210, survivors/mice, dose 20.00 mg/kg
[12] = L1210, survivors/mice, dose 40.00 mg/kg
[13] = L1210, survivors/mice, dose 80.00 mg/kg
[14] = L1210, survivors/mice, dose 160.00 mg/kg
[15] = L1210, survivors/mice, dose 320.00 mg/kg
[16] = survivors/mice, dose 10.00 mg/kg ip
[17] = survivors/mice, dose 20.00 mg/kg ip
[18] = survivors/mice, dose 40.00 mg/kg ip
[19] = survivors/mice, dose 80.00 mg/kg ip
[20] = survivors/mice, dose 320.00 mg/kg ip
[21] = survivors/mice, dose 160.00 mg/kg ip

Compound | %ILS [1, 4] | %ILS [1, 5] | %ILS [1, 6] | %ILS [1, 7] | %ILS [1, 8] | %ILS [1, 9] | SURV [1, 10] | SURV [1, 11] | SURV [1, 12] | SURV [1, 13] | SURV [1, 14] | SURV [1, 15] | %ILS ([2]; dose 10.00 mg/kg ip day one) | %ILS ([2]; dose 320.00 mg/kg ip day one) | SURV [2, 16] | SURV [2, 17] | SURV [2, 18] | SURV [2, 19] | SURV [2, 20] | other results
CC(O)(P(=O)([O-])[O-])P(=O)([O-])[O-].NC1CCCCC1N.NC1CCCCC1N.[Pt+2].[Pt+2] [Example 4, [Pt2(R,R-dach)2(HEDP)]] | 8% | 3% | 24% | 28% | 40% | 72% | 0/ 6 | 0/ 6 | 0/ 6 | 0/ 6 | 0/ 6 | 0/ 6 | -7% | 75% | 0/ 6 | 0/ 6 | 0/ 6 | 0/ 6 | 4/ 6 | %ILS ([2]; dose 20.00 mg/kg ip day one, 20 mg/kg): -10% and -4%; %ILS ([2]; dose 160.00 mg/kg ip day one, 160 mg/kg): 95% and 77%; %ILS ([2]; dose 256.00 mg/kg ip day one): 47%; SURV ([2]; survivors/mice, dose 160.00 mg/kg ip, 160 mg/kg): 5/ 6 and 3/ 6; SURV ([2]; survivors/mice, dose 256.00 mg/kg ip): 1/ 6
CC(O)(P(=O)([O-])[O-])P(=O)([O-])[O-].NCCN.NCCN.[Pt+2].[Pt+2] [[Pt2(en)2(HEDP)]] |  |  |  |  |  |  |  |  |  |  |  |  |  |  |  |  |  |  |  | antitumor activity [3]: inactive
NCCN.NCCN.O=P([O-])([O-])CP(=O)([O-])[O-].[Pt+2].[Pt+2] [[Pt2(en)2(MDP)]] |  |  |  |  |  |  |  |  |  |  |  |  |  |  |  |  |  |  |  | antitumor activity [3]: inactive
N.N.[Cl][Pt][Cl] [cisplatin, reference compound] |  |  |  |  |  |  |  |  |  |  |  |  |  |  |  |  |  |  |  | POS CONT SURV ([1]; L1210, survivors/mice, positive control of the respective experiment, 8 mg/kg cisplatin, 8 mg/kg): 3/ 6 and 4/ 6 and 0/ 6 and 1/ 6; POS CONT %ILS ([2]; positive control of the respective experiment, 8 mg/kg cisplatin in saline, 8 mg/kg): 58% and 92% and 82% and 63%; POS CONT SURV ([2]; survivors/mice, positive control of the respective experiment, 8 mg/kg cisplatin, 8 mg/kg): 2/ 5 and 4/ 6 and 3/ 6 and 1/ 6
Na[Pt2(R,R-dach)2(PDP)] [Example 3] | 1% | 28% | 28% | 55% | 104% | 111% | 0/ 6 | 0/ 6 | 0/ 6 | 0/ 6 | 2/ 6 | 2/ 6 |  |  |  |  |  |  |  | 
Na[Pt2(en)2(PDP)] [Example 2] | 0% | -3% | 0% | 20% | 23% | 11% | 0/ 6 | 0/ 6 | 0/ 6 | 0/ 6 | 0/ 6 | 0/ 6 | -4% | 49% | 0/ 6 | 0/ 6 | 0/ 6 | 1/ 6 | 1/ 6 | %ILS ([2]; dose 20.00 mg/kg ip day one): 5%; %ILS ([2]; dose 40.00 mg/kg ip day one): 6%; %ILS ([2]; dose 80.00 mg/kg ip day one): 27%; %ILS ([2]; dose 160.00 mg/kg ip day one): 48%; SURV [2, 21]: 1/ 6
[Pt2(en)2(PDP-D-glucosamine)] [Example 5] | -8% | -15% | 10% | 4% | 13% | 16% |  | 0/ 6 | 0/ 6 | 0/ 6 | 0/ 6 | 0/ 6 | 0% | 28% | 0/ 6 | 0/ 6 | 0/ 6 | 0/ 6 | 0/ 5 | %ILS ([2]; dose 20.00 mg/kg ip day one): -3%; %ILS ([2]; dose 40.00 mg/kg ip day one): -5%; %ILS ([2]; dose 80.00 mg/kg ip day one): 0%; %ILS ([2]; dose 160.00 mg/kg ip day one): 0%; SURV [2, 21]: 0/ 6
[Pt2(en)2(PDP-hydrazide)] [Example 7] | -14% | 21% | -18% | -14% | 20% | 0% | 0/ 6 | 0/ 6 | 0/ 6 | 0/ 6 | 0/ 6 | 0/ 6 |  |  |  |  |  |  |  | 
